Measured values published in patent US7759071B2, “Determination of apoptotic products in tumor patients undergoing therapy” (Roche Diagnostics, priority 1998, dated 2010).

Legend:
[1] = tested on: metastasising pancreatic carcinoma; experiment: Clinical course of the patient during chemotherapy; type: in vivo; conditions: one patient, FIG. 9
Excerpt: The effectiveness of tumour therapy can be determined by means of the remission rate on the basis of image generating processes (X-ray, computer tomography). By definition a complete remission is understood as the complete disappearance of the tumour for at least eight weeks and partial remission means a regression of the tumour manifestations by more than 50% with regard to their volume; no change reflects the state between a 50% decrease and a 25% increase of the tumour mass; progression denotes a progression of more than 25% (UICC criteria).

[2] = tested on: metastasising pancreatic carcinoma; experiment: Nucleosome concentration in serum (Cell Death Detection plus ELISA) of a patient during chemotherapy; type: in vivo; conditions: one patient, FIG. 9; for nucleosome concentration in the serum after start of new therapy scheme: combination folic acid 300 mg/m^2 and 5-fluorouracil 500 mg/m^2 on each of days 1 to 5, only a partial decrease afterwards; for nucleosome concentration in the serum at the beginning of a cycle: combination Gemcitabine 1000 mg/m^2 (day 1, 8, 15) and Cisplatin 50 mg/m^2 (day 1, 15), then decreased slowly
Protocol: The Cell Death Detection^plus ELISA (Boehringer Mannheim, Cat. No. 1 774 425) is based on the quantitative sandwich enzyme immunoassay principle. Two monoclonal mouse antibodies are used which are directed against DNA and histones. The test can be carried out with cytoplasmic lysates, culture supernatants, plasma, serum and other body fluids and allows a specific detection of mononucleosomes and oligonucleosomes. The description given here applies to measurements in liquid media:
A 20 μl aliquot of the material to be tested is pipetted into a well of a streptavidin-coated microtitre plate (MTP). 80 μl of an immunoreagent composed of biotinylated anti-histone antibodies, peroxidase-labelled anti-DNA antibodies and incubation buffer (1% BSA, 0.5% Tween, 1 mM EDTA in PBS) is added, covered with an adhesive foil and incubated for 2 hours on a MTP shaker (500 rpm). During this incubation period the anti-histone antibody reacts with the histone component of the nucleosomes and immobilizes the complex via the biotin on the streptavidin-coated microtitre plate. In addition the anti-DNA antibody binds to the DNA component of the nucleosomes. In this process ds as well as ss DNA is recognized. After removing the antibody that is still unbound by washing three times with 300-400 μl incubation buffer in each case, the immobilized complexes are incubated with 100 μl ABTS (2,2′-azino-di(3-ethyl-benzthiazoline sulfonate), the MTP is sealed with an adhesive foil and shaken at 250 rpm. The substrate reacts with the peroxidase label of the anti-DNA antibody and causes a colour change that is proportional to these antibodies. After an adequate colour development period it is photometrically quantified at d=405 nm against the substrate solution as a blank (reference wavelength d=492 nm).
Therefore absolute concentration data are not used and a scale of so-called AUs (arbitrary units) is introduced. 1000 AU equates with the highest standard level (2500 mA after 30 min); the scale is linear. This therefore takes into account the lack of knowledge about the ratio of mononucleosomes to oligonucleosomes and the resulting variability concerning the amount of binding sites of the antibodies while at the same time increasing the comparability between the tests.
After thawing attention must be paid to adjustment to room temperature and careful homogenization of the sample material. The serum samples are diluted 1:4 with incubation buffer (20 μl serum, 60 μl incubation buffer) and subsequently used in the test.
The nucleosome content was measured in patients under chemotherapy before therapy and on the second and fourth day and one week after administration of the first dose and in addition weekly or before the start of the next treatment cycle.

[3] = combination folic acid and 5-fluorouracil, continuous increase of CEA
[4] = combination Gemcitabine and Cisplatin

| Structure (SMILES) | clinical course under therapy [1, 3] | nucleosome concentration in the serum after start of new therapy scheme [2] | clinical course under therapy [1, 4] | nucleosome concentration in the serum at the beginning of a cycle [2] |
| --- | --- | --- | --- | --- |
| O=c1[nH]cc(F)c(=O)[nH]1 [5-fluorouracil] | progressive course | rapid increase | – | – |
| N.N.[Cl][Pt][Cl] [Cisplatin] | – | – | clinical progressive deterioration | increased rapidly |
| Nc1ccn([C@@H]2O[C@H](CO)[C@@H](O)C2(F)F)c(=O)n1 [Gemcitabine] | – | – | clinical progressive deterioration | increased rapidly |
| Nc1nc2ncc(CNc3ccc(C(=O)N[C@@H](CCC(=O)O)C(=O)O)cc3)nc2c(=O)[nH]1 [folic acid] | progressive course | rapid increase | – | – |
